One may read the IC50 as the concentration that inhibits the measured activity by half. A word on the Ki: it is a dissociation constant, usually derived from enzyme kinetics or from competition with a known ligand.

SMILES strings stand for the structures.

Experiment [1] in a line: DRUGMATRIX: Atrial Natriuretic Factor (ANF) radioligand binding (ligand: [125I] ANF (rat)). Type of experiment: cell membranes, Cavia porcellus, Dunkin-Hartley, Adrenal gland, Membrane. The note with it: Not Active = under 50% inhibition at 10 µM.
Experiment [2] concerns the target T1, Muscarinic acetylcholine receptor M2 (Homo sapiens, UniProt P08172). Note: in other assays of this panel Not Active means under 50% inhibition at 10 µM.
T1 sequence (P08172 whole entry): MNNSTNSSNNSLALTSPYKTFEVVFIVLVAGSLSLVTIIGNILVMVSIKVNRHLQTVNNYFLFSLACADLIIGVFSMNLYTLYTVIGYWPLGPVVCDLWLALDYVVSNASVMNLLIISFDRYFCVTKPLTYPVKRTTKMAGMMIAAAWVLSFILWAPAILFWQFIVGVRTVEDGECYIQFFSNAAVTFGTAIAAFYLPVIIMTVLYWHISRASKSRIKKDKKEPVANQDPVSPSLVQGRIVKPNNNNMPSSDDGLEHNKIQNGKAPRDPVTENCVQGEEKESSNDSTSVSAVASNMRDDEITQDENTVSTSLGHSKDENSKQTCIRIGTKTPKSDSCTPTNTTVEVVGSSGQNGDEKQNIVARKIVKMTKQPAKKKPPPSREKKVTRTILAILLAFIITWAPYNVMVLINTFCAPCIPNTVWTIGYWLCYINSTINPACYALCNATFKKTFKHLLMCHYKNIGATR
Type of experiment: cell membranes, CHO-K1, Membrane.

The target of experiment [3] is T2, Muscarinic acetylcholine receptor M4 (Homo sapiens, UniProt P08173). Note: in other assays of this panel Not Active means under 50% inhibition at 10 µM.
T2 sequence (P08173 whole entry): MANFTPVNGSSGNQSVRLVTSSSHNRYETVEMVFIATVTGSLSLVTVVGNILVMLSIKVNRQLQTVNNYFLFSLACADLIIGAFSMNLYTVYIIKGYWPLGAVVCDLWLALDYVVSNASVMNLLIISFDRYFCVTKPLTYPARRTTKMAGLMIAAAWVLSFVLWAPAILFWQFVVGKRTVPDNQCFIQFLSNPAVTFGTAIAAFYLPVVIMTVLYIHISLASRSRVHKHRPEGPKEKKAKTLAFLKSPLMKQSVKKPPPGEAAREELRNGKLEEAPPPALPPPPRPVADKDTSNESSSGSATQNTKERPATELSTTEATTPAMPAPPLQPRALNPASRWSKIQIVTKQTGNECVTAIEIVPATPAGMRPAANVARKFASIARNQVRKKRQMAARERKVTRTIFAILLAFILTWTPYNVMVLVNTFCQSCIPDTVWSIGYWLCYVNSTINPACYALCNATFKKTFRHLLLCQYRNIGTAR
Type of experiment: cell membranes, CHO-K1, Membrane. The note with it: for Ki: read-out: Ki.

Experiment [4] deals with 5-hydroxytryptamine receptor 1B (Rattus norvegicus, UniProt P28564). Type of experiment: cell membranes, Wistar, Cerebral cortex, Membrane.
For a further experiment, the target named is T3, Adenosine receptor A3 (Homo sapiens, UniProt P0DMS8).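 Note: radioligand binding assay with AB-MECA serving as the labeled ligand; in other assays of this panel Not Active means under 50% inhibition at 10 µM.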
T3 sequence (P0DMS8 whole entry): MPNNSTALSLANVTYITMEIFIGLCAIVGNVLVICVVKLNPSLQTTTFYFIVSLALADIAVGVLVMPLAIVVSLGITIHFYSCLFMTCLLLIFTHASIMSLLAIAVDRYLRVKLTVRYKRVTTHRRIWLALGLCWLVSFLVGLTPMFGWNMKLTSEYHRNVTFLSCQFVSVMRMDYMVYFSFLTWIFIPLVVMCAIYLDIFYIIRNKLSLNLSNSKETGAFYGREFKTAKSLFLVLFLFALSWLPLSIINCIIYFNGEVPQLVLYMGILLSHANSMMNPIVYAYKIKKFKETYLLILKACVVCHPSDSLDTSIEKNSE
Type of experiment: cell membranes, CHO-K1, Membrane. The note with it: for Ki: read-out: Ki.

5-hydroxytryptamine receptor 1B, sequence (P28564 whole entry): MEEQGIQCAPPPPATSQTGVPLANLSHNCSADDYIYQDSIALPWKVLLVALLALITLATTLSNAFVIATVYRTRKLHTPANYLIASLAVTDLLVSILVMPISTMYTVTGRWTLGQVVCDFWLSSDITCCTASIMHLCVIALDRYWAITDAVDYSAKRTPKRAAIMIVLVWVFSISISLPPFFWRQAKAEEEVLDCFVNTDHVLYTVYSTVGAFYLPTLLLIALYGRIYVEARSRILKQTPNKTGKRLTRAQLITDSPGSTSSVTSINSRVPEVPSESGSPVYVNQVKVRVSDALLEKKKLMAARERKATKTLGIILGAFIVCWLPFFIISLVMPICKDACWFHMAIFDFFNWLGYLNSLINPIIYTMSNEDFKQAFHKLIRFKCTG

Take `C[C@H]1O[C@@H](O[C@H]2[C@@H](O)C[C@H](O[C@H]3[C@@H](O)C[C@H](O[C@H]4CC[C@@]5(C)[C@H](CC[C@@H]6[C@@H]5CC[C@]5(C)[C@@H](C7=CC(=O)OC7)CC[C@]65O)C4)O[C@@H]3C)O[C@@H]2C)C[C@H](O)[C@@H]1O` [DIGITOXIN]: the IC50 entry (in experiment [1]; in experiment [2] (cho-k1); in experiment [3] (cho-k1); in experiment [4]; on Adenosine receptor A3 (cho-k1)) was “Not Active” throughout. For the same compound, the Ki result in experiment [1] is “Not Active”.

For the compound `CCN1CC(CCN2CCOCC2)C(c2ccccc2)(c2ccccc2)C1=O` (stereo not drawn) [DOXAPRAM], the IC50 result (in experiment [1]; in experiment [2] (cho-k1); in experiment [3] (cho-k1); in experiment [4]; against Adenosine receptor A3 (cho-k1)) was “Not Active” throughout. In addition, the inhibition constant Ki entry in experiment [1] is “Not Active”.

As to `Cn1c(=O)c2c(ncn2CC2OCCO2)n(C)c1=O` [DOXOFYLLINE], the IC50 entry (in experiment [1]; in experiment [2] (cho-k1); in experiment [3] (cho-k1); in experiment [4]; at Adenosine receptor A3 (cho-k1)) was “Not Active” in each case. The inhibitory constant (Ki) entry in experiment [1] is given as “Not Active”.

For `COc1cccc2c1C(=O)c1c(O)c3c(c(O)c1C2=O)C[C@@](O)(C(=O)CO)C[C@@H]3O[C@H]1C[C@H](N)[C@H](O)[C@H](C)O1` [DOXORUBICIN], the IC50 entry in experiment [1] was “Not Active”; in experiment [2] (cho-k1), “Not Active”; in experiment [3] (cho-k1), “Not Active”; in experiment [4] (read-out: IC50), 34.5 µM; on Adenosine receptor A3 (cho-k1), “Not Active”. In addition, the results for the inhibition constant Ki result in experiment [1] and in experiment [4] (read-out: Ki) were “Not Active” and 15.7 µM, respectively.

As to `COc1cccc2c1C(=O)c1c(O)c3c(c(O)c1C2=O)C[C@@](O)(C(=O)CO)C[C@@H]3O[C@H]1C[C@H](N)[C@@H](O)[C@H](C)O1` [EPIRUBICIN], the IC50 entry (in experiment [1]; in experiment [2] (cho-k1); in experiment [3] (cho-k1); in experiment [4]; against Adenosine receptor A3 (cho-k1)) was “Not Active” in each case. For the same compound, the Ki entry in experiment [1] was “Not Active”.

For the compound `C[C@]12CC[C@@H]3c4ccc(OC(=O)c5ccccc5)cc4CC[C@H]3[C@@H]1CC[C@@H]2O` [ESTRADIOL BENZOATE], the IC50 entry in experiment [1] is “Not Active”; in experiment [2] (cho-k1), “Not Active”; in experiment [3] (cho-k1) it was “Not Active”; in experiment [4], “Not Active”; on Adenosine receptor A3 (read-out: IC50), 21.8 µM. Also, the Ki result in experiment [1] was “Not Active”; at Adenosine receptor A3, 12.3 µM.

Regarding `C[C@]12CC[C@@H]3c4ccc(O)cc4CC[C@H]3[C@@H]1CC[C@@H]2O` [ESTRADIOL], the IC50 result (in experiment [1]; in experiment [2] (cho-k1); in experiment [3] (cho-k1); in experiment [4]; on Adenosine receptor A3 (cho-k1)) was “Not Active” throughout. Besides, in experiment [1], the Ki entry is “Not Active”.

Take `CC[C@@H](CO)NCCN[C@@H](CC)CO` [ETHAMBUTOL]: the half-maximal inhibitory concentration (IC50) entry (in experiment [1]; in experiment [2] (cho-k1); in experiment [3] (cho-k1); in experiment [4]; against Adenosine receptor A3 (cho-k1)) was “Not Active” in each case. In addition, the inhibition constant (Ki) entry in experiment [1] is recorded as “Not Active”.

`CC1(C)O[C@@H]2C[C@H]3[C@@H]4C[C@H](F)C5=CC(=O)C=C[C@]5(C)[C@H]4[C@@H](O)C[C@]3(C)[C@]2(C(=O)CO)O1` [FLUNISOLIDE]: the 50% inhibitory concentration (IC50) entry (in experiment [1]; in experiment [2] (cho-k1); in experiment [3] (cho-k1); in experiment [4]; on Adenosine receptor A3 (cho-k1)) was “Not Active” each time. For the same compound, the Ki entry in experiment [1] is on record as “Not Active”.

As to `CC1(C)O[C@@H]2C[C@H]3[C@@H]4C[C@H](F)C5=CC(=O)C=C[C@]5(C)[C@@]4(F)[C@@H](O)C[C@]3(C)[C@]2(C(=O)CO)O1` [FLUOCINOLONE ACETONIDE], the IC50 result (in experiment [1]; in experiment [2] (cho-k1); in experiment [3] (cho-k1); in experiment [4]; on Adenosine receptor A3 (cho-k1)) was “Not Active” in each case. Moreover, the Ki result in experiment [1] was “Not Active”.

For `CC1(C)O[C@@H]2C[C@H]3[C@@H]4C[C@H](F)C5=CC(=O)CC[C@]5(C)[C@H]4[C@@H](O)C[C@]3(C)[C@]2(C(=O)CO)O1` [FLURANDRENOLIDE], the 50% inhibitory concentration (IC50) entry (in experiment [1]; in experiment [2] (cho-k1); in experiment [3] (cho-k1); in experiment [4]; against Adenosine receptor A3 (cho-k1)) was “Not Active” in each case. Moreover, the Ki entry in experiment [1] is “Not Active”.

On to `CN(C)c1ccc(C(=C2C=CC(=[N+](C)C)C=C2)c2ccc(N(C)C)cc2)cc1.[Cl-]` [GENTIAN VIOLET], for which the IC50 entry in experiment [1] is “Not Active”; in experiment [2] (read-out: IC50), 1.43 µM; in experiment [3] (read-out: IC50), 1.01 µM; in experiment [4], “Not Active”; at Adenosine receptor A3 (read-out: IC50), 4.17 µM. Besides, the Ki entry was “Not Active” in experiment [1], 0.508 µM in experiment [2] (read-out: Ki), 0.14 µM in experiment [3] and 2.35 µM on Adenosine receptor A3.

`Cc1ccc(S(=O)(=O)NC(=O)NN2CC3CCCC3C2)cc1` (stereo not drawn) [GLICLAZIDE]: the IC50 result (in experiment [1]; in experiment [2] (cho-k1); in experiment [3] (cho-k1); in experiment [4]; at Adenosine receptor A3 (cho-k1)) was “Not Active” throughout. In addition, the inhibition constant Ki result in experiment [1] is “Not Active”.

Turning to `NC(=O)NO` [HYDROXYUREA], the half-maximal inhibitory concentration (IC50) entry (in experiment [1]; in experiment [2] (cho-k1); in experiment [3] (cho-k1); in experiment [4]; at Adenosine receptor A3 (cho-k1)) was “Not Active” each time. For the same compound, the inhibitory constant (Ki) entry in experiment [1] is given as “Not Active”.

`CC(C)Cc1ccc(C(C)C(=O)O)cc1` (stereo not drawn) [IBUPROFEN]: the half-maximal inhibitory concentration (IC50) entry (in experiment [1]; in experiment [2] (cho-k1); in experiment [3] (cho-k1); in experiment [4]; against Adenosine receptor A3 (cho-k1)) was “Not Active” throughout. The inhibition constant (Ki) entry in experiment [1] was “Not Active”.

As to `COc1ccc2c(c1)c(CC(=O)O)c(C)n2C(=O)c1ccc(Cl)cc1` [INDOMETHACIN], the IC50 result (in experiment [1]; in experiment [2] (cho-k1); in experiment [3] (cho-k1); in experiment [4]; against Adenosine receptor A3 (cho-k1)) was “Not Active” in each case. Besides, in experiment [1], the Ki result was “Not Active”.

On to `CCc1c2c(nc3ccc(OC(=O)N4CCC(N5CCCCC5)CC4)cc13)-c1cc3c(c(=O)n1C2)COC(=O)[C@]3(O)CC` [IRINOTECAN], for which the 50% inhibitory concentration (IC50) entry in experiment [1] was “Not Active”; in experiment [2] (cho-k1), “Not Active”; in experiment [3] (read-out: IC50), 1.56 µM; in experiment [4], “Not Active”; at Adenosine receptor A3 (cho-k1), “Not Active”. The inhibition constant Ki result in experiment [1] is “Not Active”; in experiment [3], 0.217 µM.

As for `CC(C(=O)O)c1cccc(C(=O)c2ccccc2)c1` (stereo not drawn) [KETOPROFEN], the IC50 entry (in experiment [1]; in experiment [2] (cho-k1); in experiment [3] (cho-k1); in experiment [4]; on Adenosine receptor A3 (cho-k1)) was “Not Active” in each case. In addition, the inhibition constant Ki result in experiment [1] is “Not Active”.

Turning to `Nc1ccn([C@@H]2CS[C@H](CO)O2)c(=O)n1` [LAMIVUDINE], the IC50 result (in experiment [1]; in experiment [2] (cho-k1); in experiment [3] (cho-k1); in experiment [4]; against Adenosine receptor A3 (cho-k1)) was “Not Active” each time. The inhibition constant Ki result in experiment [1] was “Not Active”.

`O=S(=O)([O-])CCS.[Na+]` [MESNA]: the IC50 entry (in experiment [1]; in experiment [2] (cho-k1); in experiment [3] (cho-k1); in experiment [4]; against Adenosine receptor A3 (cho-k1)) was “Not Active” in each case. Further, the Ki entry in experiment [1] is “Not Active”.

On to `C#C[C@]1(O)CC[C@H]2[C@@H]3CCc4cc(OC)ccc4[C@H]3CC[C@@]21C` [MESTRANOL], for which the IC50 result (in experiment [1]; in experiment [2] (cho-k1); in experiment [3] (cho-k1); in experiment [4]; on Adenosine receptor A3 (cho-k1)) was “Not Active” in each case. Also, in experiment [1], the Ki result is listed as “Not Active”.

Turning to `CC(=O)Nc1cccc(O)c1` [METACETAMOL], the IC50 result (in experiment [1]; in experiment [2] (cho-k1); in experiment [3] (cho-k1); in experiment [4]; against Adenosine receptor A3 (cho-k1)) was “Not Active” throughout. Moreover, in experiment [1], the inhibition constant (Ki) entry is listed as “Not Active”.

These data come from ChEMBL document CHEMBL1909046, “DrugMatrix in vitro pharmacology data”.
